Values after ≈ are worked out from the molar mass of the structure shown. Read-outs that look alike come from different tables or passages of the source.
System: E. coli ATCC 11229
Assay: Minimal inhibitory concentration (MIC), broth microdilution
Format: cell-based
Conditions: Escherichia coli
Protocol: It was cultivated in tryptic soy broth (TSB) (BD, Sparks, NV, USA) at 37 °C and subcultured three times before being used for antimicrobial activity assays.
MICs for Escherichia coli ATCC 11229 were determined using a broth microdilution protocol. Briefly, twofold dilutions of peptide solutions ([…]) were made in Mueller Hinton Broth (MHB) (Oxoid, Basingstoke, UK) in 96-well polypropylene clear round bottom microplates (Corning Inc., Corning, NY, USA). Bacteria were cultured for 18 h and then diluted in MHB broth and inoculated in the microplates so that the final inoculum in the wells was 5 × 10^5 CFU/mL. The final volumes in the wells were 200 μL. Plates were then incubated for 16 h at 37 °C. […] Chloramphenicol (Sigma-Aldrich, St. Louis, MI, USA) was used as a positive control to ensure the validity of the tests. […] MBCs were defined as the lowest peptide concentrations that inhibited 99.9% or more of bacterial growth based on the initial 5 × 10^5 CFU/mL inocula in the wells [66]. Three independent repetitions were completed, and two technical replicates were done for each independent repetition.
The impact of different salts on the antimicrobial activity of SJGAP and analogs thereof was tested by determining the effect on their MIC and MBC values. The same procedure as described above was used, but different concentrations of salts were added to the MHB medium in the microplates. To test the impact of monovalent cations, NaCl (Fisher Scientific, Fair Lawn, NJ, USA) and KCl (EMD, Gibbstown, NJ, USA) were tested at final concentrations of 50, 150, and 300 mM in the wells.
The stability of the peptides at elevated temperatures was also tested. Mixtures of the peptides solubilized in MHB medium were heated to 100 °C for 15 min in a water bath. After cooling in an ice water bath, the solutions were loaded into the microplates and inoculated with the tested bacteria to conduct the MIC and MBC assays. For all tested conditions, three independent repetitions and two technical replicates for each of these repetitions were completed.

Work on `O=C(N[C@H](CO)[C@H](O)c1ccc([N+](=O)[O-])cc1)C(Cl)Cl` [Chloramphenicol] yielded an MIC (ATCC11229, 16 h, MHB + 1 mM CaCl2, 16 h, 37 °C, 5 × 10^5 CFU/mL, three independent repetitions, n.a. = no activity, read-out: MIC) of 8 mg/L, an MIC (ATCC11229, MHB + 1 mM MgCl2, n.a. = no activity, read-out: MIC) of 8 mg/L and an MIC (ATCC11229, MHB + 5 mM CaCl2, n.a. = no activity, read-out: MIC) of 8 mg/L. The MIC (ATCC11229, MHB + 5 mM MgCl2, n.a. = no activity, read-out: MIC) was 8 mg/L, the MIC (ATCC11229, MHB + 10 mM CaCl2, n.a. = no activity, read-out: MIC) was 8 mg/L and the MIC (ATCC11229, MHB + 10 mM MgCl2, n.a. = no activity, read-out: MIC) was 8 mg/L. It also gave an MIC (ATCC11229, MHB + 50 mM KCl, n.a. = no activity, * very weak bacterial growth detected, read-out: MIC) of 8 mg/L, an MIC (ATCC11229, MHB + 50 mM NaCl, n.a. = no activity, * very weak bacterial growth detected, read-out: MIC) of 8 mg/L and an MIC (ATCC11229, MHB + 150 mM KCl, n.a. = no activity, * very weak bacterial growth detected, read-out: MIC) of 4 mg/L. It also gave an MIC (ATCC11229, MHB + 150 mM NaCl, n.a. = no activity, * very weak bacterial growth detected, read-out: MIC) of 4 mg/L, an MIC (ATCC11229, MHB + 300 mM KCl, n.a. = no activity, read-out: MIC) of 2 mg/L and an MIC (ATCC11229, MHB + 300 mM NaCl, n.a. = no activity, read-out: MIC) of 4 mg/L. For the same compound, the MIC (ATCC11229, […], peptide in MHB heated 100 °C, 15 min in water bath, cooled, then assayed, n.a. = no activity, read-out: MIC after heating treatment) was 8 mg/L (≈ 24.8 µM), the MIC (ATCC11229, pH 5, MHB adjusted to pH 5 with 50 mM citrate buffer, * very weak bacterial growth detected, read-out: MIC) was 0.5 mg/L (≈ 1.55 µM) and the MIC (ATCC11229, pH 6, MHB adjusted to pH 6 with 50 mM citrate buffer, * very weak bacterial growth detected, read-out: MIC) was 2 mg/L (≈ 6.19 µM). It also gave an MIC (ATCC11229, pH 7, MHB adjusted to pH 7 with 50 mM phosphate buffer, n.a. = no activity, read-out: MIC) of 4 mg/L (≈ 12.4 µM), an MIC (ATCC11229, pH 8, MHB adjusted to pH 8 with 50 mM phosphate buffer, n.a. = no activity, read-out: MIC) of 4 mg/L (≈ 12.4 µM) and an MIC (ATCC11229, unmodified MHB (Ctrl −), n.a. = no activity, read-out: MIC) of 8 mg/L (≈ 24.8 µM).

Reference: paper PMC10525732, “Assessing the Activity under Different Physico-Chemical Conditions, Digestibility, and Innocuity of a GAPDH-Related Fish Antimicrobial Peptide and Analogs Thereof” (Antibiotics, 2023)
